Measurements reported in patent EP2818472A1, “Imidazo[4,5-c]pyridine and pyrrolo[3,2-c]pyridine compounds as G-protein-coupled receptor kinase 5 (GRK5) modulators” (Max-Planck-Gesellschaft zur Förderung der Wissenschaften …, priority 2013, dated 2014).

Test system: beta-TC6 cells
Assay: Insulin HTRF assay (relative activity Ar) in beta-TC6 cells
Format: cell-based, mouse
Conditions: Mus musculus, Beta-TC6, 4 h, insulin HTRF, supernatant of beta-TC6 cells, incubation with test compound at 37°C for 2, 3, 4h; read-out: Ar (relative activity)
How it was run: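 beta-TC6 cells (15k/well, seeded 24 or 48 h) washed, then exposed to compound in induction buffer (0.5% DMSO final) for 2, 3 or 4 h at 37°C.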

`CC(=O)N(C)c1cccc(-c2cc3cnc(Nc4cccnc4)cc3n2C)c1` [Compound 162, N-methyl-N-[3-[1-methyl-6-(3-pyridylamino)pyrrolo[3,2-c]pyridin-2-yl]phenyl]acetamide] and `CC(=O)N(C)c1cccc(-c2cc3cnc(Nc4ccc(C(=O)N(C)C)cc4)cc3n2C)c1` [Compound 172, 4-[[2-[3-[acetyl(methyl)amino]phenyl]-1-methyl-pyrrolo[3,2-c]pyridin-6-yl]amino]-N,N-dimethyl-benzamide] fall in the same range of Emax: 50 to 100% for the first, 50 to 100% for the second.

First: CNc1nc2cnc(-c3ccc4ccccc4c3)cc2n1Cc1ccc(OC)c(OC)c1 [Compound 668, 1-[(3,4-dimethoxyphenyl)methyl]-N-methyl-6-(2-naphthyl)imidazo[4,5-c]pyridin-2-amine]
Second: CNc1nc2cnc(-c3cccs3)cc2n1Cc1ccc(OC)c(OC)c1 [Compound 880, 1-[(3,4-dimethoxyphenyl)methyl]-N-methyl-6-(2-thienyl)imidazo[4,5-c]pyridin-2-amine]
The Emax of the first is higher: 50 to 100% for the first, 30 to 50% for the second.

`COc1ccc(-c2nc3c(Nc4ccccc4)nccc3[nH]2)cc1OC` [Compound 342, 2-(3,4-dimethoxyphenyl)-N-phenyl-1H-imidazo[4,5-c]pyridin-4-amine] and `COc1cccc(-c2nc3c(Nc4ccccc4)nccc3[nH]2)c1F` [Compound 472, 2-(2-fluoro-3-methoxy-phenyl)-N-phenyl-1H-imidazo[4,5-c]pyridin-4-amine] fall in the same range of Emax: 50 to 100% for the first, 50 to 100% for the second.

First: CNc1nc2cnc(-c3ccccc3Oc3ccccc3)cc2n1Cc1ccccc1 [Compound 529, 1-benzyl-N-methyl-6-(2-phenoxyphenyl)imidazo[4,5-c]pyridin-2-amine]
Second: CNc1nc2cnc(-c3cccc(O)c3)cc2n1Cc1ccccc1 [Compound 533, 3-[1-benzyl-2-(methylamino)imidazo[4,5-c]pyridin-6-yl]phenol]
The Emax of the first is lower: 30 to 50% for the first, 50 to 100% for the second.

First: COc1ccc(Nc2nccc3[nH]c(-c4cccc(OC)c4F)nc23)cc1OC [Compound 469, N-(3,4-dimethoxyphenyl)-2-(2-fluoro-3-methoxy-phenyl)-1H-imidazo[4,5-c]pyridin-4-amine]
Second: COc1cccc(Nc2nccc3[nH]c(-c4cccnc4)nc23)c1 [Compound 358, N-(3-methoxyphenyl)-2-(3-pyridyl)-1H-imidazo[4,5-c]pyridin-4-amine]
The Emax of the first is higher: over 100% for the first, 50 to 100% for the second.

Compared with `Fc1cccc(-c2nc3c(Nc4cccc(Oc5ccccc5)c4)nccc3[nH]2)c1` [Compound 408, 2-(3-fluorophenyl)-N-(3-phenoxyphenyl)-1H-imidazo[4,5-c]pyridin-4-amine], `COCCNC(=O)c1cccc(-c2nc3c(Nc4cccc(OC)c4)nccc3[nH]2)c1` [Compound 386, 3-[4-(3-methoxyanilino)-1H-imidazo[4,5-c]pyridin-2-yl]-N-(2-methoxyethyl)benzamide] is higher in Emax: 0 to 30% for the first, 50 to 100% for the second.

`CNc1nc2cnc(Nc3ccc(SC)cc3)cc2n1Cc1ccc(OC)c(OC)c1` [Compound 675, 1-[(3,4-dimethoxyphenyl)methyl]-N2-methyl-N6-(4-methylsulfanylphenyl)imidazo[4,5-c]pyridine-2,6-diamine] and `CNc1nc2cnc(Nc3ccc(OC)c(OC)c3)cc2n1Cc1ccc(OC)c(OC)c1` [Compound 665, N6-(3,4-dimethoxyphenyl)-1-[(3,4-dimethoxyphenyl)methyl]-N2-methyl-imidazo[4,5-c]pyridine-2,6-diamine] fall in the same range of Emax: 50 to 100% for the first, 50 to 100% for the second.

`CNc1nc2cnc(Nc3ccc(OC)cc3C)cc2n1CC1CC1` [Compound 760, 1-(cyclopropylmethyl)-N6-(4-methoxy-2-methyl-phenyl)-N2-methyl-imidazo[4,5-c]pyridine-2,6-diamine] and `CNc1nc2cnc(Nc3cccc(C(C)C)c3)cc2n1CCOC` [Compound 772, N6-(3-isopropylphenyl)-1-(2-methoxyethyl)-N2-methyl-imidazo[4,5-c]pyridine-2,6-diamine] fall in the same range of Emax: 0 to 30% for the first, 0 to 30% for the second.

`CNc1nc2cnc(Nc3cccc(C(C)=O)c3)cc2n1CCN1CCOCC1` [Compound 558, 1-[3-[[2-(methylamino)-1-(2-morpholinoethyl)imidazo[4,5-c]pyridin-6-yl]amino]phenyl]ethanone] and `CNc1nc2cnc(Nc3cc(OC)c(OC)c(OC)c3)cc2n1Cc1ccco1` [Compound 519, 1-(2-furylmethyl)-N2-methyl-N6-(3,4,5-trimethoxyphenyl)imidazo[4,5-c]pyridine-2,6-diamine] fall in the same range of Emax: 50 to 100% for the first, 50 to 100% for the second.

First: Cn1c(-c2cccnc2)cc2c(Nc3ccc(F)cc3)nccc21 [Compound 242, N-(4-fluorophenyl)-1-methyl-2-(3-pyridyl)pyrrolo[3,2-c]pyridin-4-amine]
Second: Cn1c(-c2ccsc2)cc2c(Nc3ccc(O)cc3)nccc21 [Compound 271, 4-[[1-methyl-2-(3-thienyl)pyrrolo[3,2-c]pyridin-4-yl]amino]phenol]
The Emax of the first is lower: 0 to 30% for the first, 50 to 100% for the second.

First: Cc1cccc(Nc2cc3[nH]c(-c4cn[nH]c4)cc3cn2)c1 [Compound 113, N-(m-tolyl)-2-(1H-pyrazol-4-yl)-1H-pyrrolo[3,2-c]pyridin-6-amine]
Second: Fc1cccc(-c2cc3cnc(Nc4ccc(F)c(Cl)c4)cc3[nH]2)c1 [Compound 9, N-(3-chloro-4-fluoro-phenyl)-2-(3-fluorophenyl)-1H-pyrrolo[3,2-c]pyridin-6-amine]
The Emax of the first is higher: 50 to 100% for the first, 0 to 30% for the second.

`Cn1c(-c2ccsc2)cc2c(Nc3cccc(S(C)(=O)=O)c3)nccc21` [Compound 282, 1-methyl-N-(3-methylsulfonylphenyl)-2-(3-thienyl)pyrrolo[3,2-c]pyridin-4-amine] and `CN(C)C(=O)c1ccc(-c2cc3c(Nc4cccc(O)c4)nccc3n2C)cc1` [Compound 221, 4-[4-(3-hydroxyanilino)-1-methyl-pyrrolo[3,2-c]pyridin-2-yl]-N,N-dimethyl-benzamide] fall in the same range of Emax: 30 to 50% for the first, 30 to 50% for the second.

Compared with `COc1ccc(-c2nc3cnc(Nc4ccc(NC(C)=O)cc4)cc3n2C)cc1OC` [Compound 717, N-[4-[[2-(3,4-dimethoxyphenyl)-1-methyl-imidazo[4,5-c]pyridin-6-yl]amino]phenyl]acetamide], `COc1ccc(Nc2cc3c(cn2)nc(-c2ccccc2)n3C)c(OC)c1` [Compound 703, N-(2,4-dimethoxyphenyl)-1-methyl-2-phenyl-imidazo[4,5-c]pyridin-6-amine] is lower in Emax: 50 to 100% for the first, 30 to 50% for the second.

`COc1ccccc1Nc1nc2cnc(-c3cccnc3)cc2n1C` [Compound 613, N-(2-methoxyphenyl)-1-methyl-6-(3-pyridyl)imidazo[4,5-c]pyridin-2-amine] and `COc1ccc(Nc2cc3c(cn2)nc(NCc2ccccc2)n3C)cc1` [Compound 621, N2-benzyl-N6-(4-methoxyphenyl)-1-methyl-imidazo[4,5-c]pyridine-2,6-diamine] fall in the same range of Emax: 50 to 100% for the first, 50 to 100% for the second.

`CC(=O)Nc1ccc(Nc2cc3c(cn2)ncn3C)cc1` [Compound 726, N-[4-[(1-methylimidazo[4,5-c]pyridin-6-yl)amino]phenyl]acetamide] and `CN(C)C(=O)c1ccc(-c2cc3cnc(Nc4ccccc4)cc3n2C)cc1` [Compound 48, 4-(6-anilino-1-methyl-pyrrolo[3,2-c]pyridin-2-yl)-N,N-dimethyl-benzamide] fall in the same range of Emax: 50 to 100% for the first, 50 to 100% for the second.

Compared with `Cn1c(-c2cccnc2)cc2cnc(N3CCOCC3)cc21` [Compound 94, 4-[1-methyl-2-(3-pyridyl)pyrrolo[3,2-c]pyridin-6-yl]morpholine], `Cn1c(NCc2ccccc2F)nc2cnc(-c3ccc(N4CCOCC4)cc3)cc21` [Compound 653, N-[(2-fluorophenyl)methyl]-1-methyl-6-(4-morpholinophenyl)imidazo[4,5-c]pyridin-2-amine] is higher in Emax: 30 to 50% for the first, 50 to 100% for the second.

First: COc1cc(Nc2cc3c(cn2)nc(Cc2ccccc2)n3C)cc(OC)c1OC [Compound 699, 2-benzyl-1-methyl-N-(3,4,5-trimethoxyphenyl)imidazo[4,5-c]pyridin-6-amine]
Second: COc1ccc(Nc2cc3c(cn2)cc(-c2cnn(C)c2)n3C)cc1OC [Compound 129, N-(3,4-dimethoxyphenyl)-1-methyl-2-(1-methylpyrazol-4-yl)pyrrolo[3,2-c]pyridin-6-amine]
The Emax of the first is lower: 50 to 100% for the first, over 100% for the second.

`CN(C)c1ccc(-c2cc3c(Nc4ccc(O)cc4)nccc3n2C)cc1` [Compound 226, 4-[[2-(4-dimethylaminophenyl)-1-methyl-pyrrolo[3,2-c]pyridin-4-yl]amino]phenol] and `CN(C)C(=O)c1ccc(-c2cc3cnc(Nc4ccc(S(C)(=O)=O)cc4)cc3[nH]2)cc1` [Compound 43, N,N-dimethyl-4-[6-(4-methylsulfonylanilino)-1H-pyrrolo[3,2-c]pyridin-2-yl]benzamide] fall in the same range of Emax: 50 to 100% for the first, 50 to 100% for the second.

First: COC(=O)c1ccc(Nc2cc3[nH]c(-c4ccc(C(=O)N(C)C)cc4)cc3cn2)cc1 [Compound 29, methyl 4-[[2-[4-(dimethylcarbamoyl)phenyl]-1H-pyrrolo[3,2-c]pyridin-6-yl]amino]benzoate]
Second: COc1cccc(-c2cc3c(Nc4ccc(OC)nc4)nccc3[nH]2)c1 [Compound 307, 2-(3-methoxyphenyl)-N-(6-methoxy-3-pyridyl)-1H-pyrrolo[3,2-c]pyridin-4-amine]
The Emax of the first is lower: 30 to 50% for the first, 50 to 100% for the second.

First: COCCNc1nc2cnc(-c3ccc4ccccc4c3)cc2[nH]1 [Compound 677, N-(2-methoxyethyl)-6-(2-naphthyl)-1H-imidazo[4,5-c]pyridin-2-amine]
Second: COc1cccc(-c2cc3c(cn2)ncn3Cc2ccc(OC)c(OC)c2)c1 [Compound 754, 1-[(3,4-dimethoxyphenyl)methyl]-6-(3-methoxyphenyl)imidazo[4,5-c]pyridine]
The Emax of the first is higher: 50 to 100% for the first, 0 to 30% for the second.

`COc1ccc(CNc2nccc3c2ncn3Cc2ccccc2)cc1` [Compound 455, 1-benzyl-N-[(4-methoxyphenyl)methyl]imidazo[4,5-c]pyridin-4-amine] was tested, and the Emax was 0 to 30%.

Same assay, conditions: insulin HTRF, supernatant of beta-TC6 cells, incubation with test compound at 37°C for 2, 3, 4h

`CNc1nc2cnc(-c3ccc(CO)cc3)cc2n1-c1ccccc1` [Compound 785, [4-[2-(methylamino)-1-phenyl-imidazo[4,5-c]pyridin-6-yl]phenyl]methanol] was tested, and the “Ar (relative activity)” value was “+ (0 % < Ar < 30 %)”.
